Laboratory results published in patent US20050020854A1, “Alkyl(en)ylglycerinether carboxylic acids” (priority 2001, published 2005).
Like-named read-outs stand apart in the source and are kept apart here.

Tested on: mucous membrane (HET-CAM)
Assay: Mucous membrane compatibility, in vitro HET-CAM test, reaction time method
Protocol: Mucous membrane compatibility was evaluated by the in vitro HET-CAM test using the reaction time method (conc. 5% in 2×-distilled water, pH=6).

[1] = conc. 5% in 2×-distilled water, pH=6

| Evaluation | Substance | Irritation value Q | Evaluation [1] | Irritation value Q [1] |
| --- | --- | --- | --- | --- |
| Moderately | Sodium Laureth Sulfate [Texapon ASV] | 1.0 |  |  |
|  | mono-C12-glycerol ether carboxylic acid [Example 1] |  | Slightly irritating | 0.76 |
|  | mono-C12-glycerol ether+4EO ether carboxylic acid [Example 2] | 0.00 |  |  |
